Assay results from patent US10450306B2, “Isoxazole analogs as FXR agonists and methods of use thereof” (Enanta Pharmaceuticals, Inc., priority 2016, dated 2019).

Biological target: T1, human FXR (NR1H4) (Homo sapiens, UniProt Q96RI1)
T1 construct: host or cells: CHO (Chinese hamster ovary) reporter cells
T1 sequence (Q96RI1 1-486): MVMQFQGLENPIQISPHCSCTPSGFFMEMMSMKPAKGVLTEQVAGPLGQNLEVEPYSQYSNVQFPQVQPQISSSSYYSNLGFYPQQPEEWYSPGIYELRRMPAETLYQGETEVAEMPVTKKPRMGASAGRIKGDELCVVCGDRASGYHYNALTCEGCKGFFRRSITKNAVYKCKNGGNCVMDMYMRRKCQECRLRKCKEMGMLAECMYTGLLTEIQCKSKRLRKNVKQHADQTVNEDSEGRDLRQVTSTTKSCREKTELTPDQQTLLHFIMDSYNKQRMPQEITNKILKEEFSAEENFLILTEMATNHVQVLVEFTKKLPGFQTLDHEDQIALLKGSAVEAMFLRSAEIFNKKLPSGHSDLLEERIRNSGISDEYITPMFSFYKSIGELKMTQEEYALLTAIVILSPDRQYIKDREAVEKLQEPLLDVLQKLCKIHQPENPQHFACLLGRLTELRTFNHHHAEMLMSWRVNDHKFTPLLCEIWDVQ
Assay: Human FXR (NR1H4) Assay: Gal4 promoter driven luciferase reporter transactivation in CHO cells (Indigo Bioscience kit IB00601); for Efficacy (%): efficacy normalized to CDCA set as 100%
Format: cell-based
Settings: for Emax: CHO, read-out: Efficacy (%); for EC50: Human FXR (NR1H4) reporter assay, potency ranges
In short: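 Luminescence read-out after 22 h exposure quantified FXR transactivation; compounds were tested at several doses, 0.2% DMSO, in CHO cells engineered with human NR1H4 and a luciferase gene linked to an FXR-responsive promoter.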

Row | SMILES | Emax | EC50
1 | O=C(NS(=O)(=O)C1CC1)c1ccc2nc(N3C4CCC3CC(NCc3c(-c5ccccc5OC(F)(F)F)noc3C3CC3)C4)ccc2c1 (stereo not shown) [Example 900-15] | 82.5% | 1 to 100 nM
2 | CC1(S(=O)(=O)NC(=O)c2ccc3nc(N4C5CCC4CC(NCc4c(C6CCC7(CC6)CC7)noc4C4CC4)C5)sc3c2)CC1 (stereo not shown) [Example 1202] | 85.5% | 1 to 100 nM
3 | CC(C)Oc1cc(C(=O)O)cc2sc(N3C4CCC3CC(NCc3c(-c5ccccc5C(F)(F)F)noc3C3CC3)C4)nc12 (stereo not shown) [Example 1401] | 125% | 100 to 1000 nM
4 | CC(C)Oc1cc(C(=O)NS(=O)(=O)C2(C)CC2)cc2sc(N3C4CCC3CC(NCc3c(-c5ccccc5C(F)(F)F)noc3C3CC3)C4)nc12 (stereo not shown) [Example 1402] | 136% | 1 to 100 nM
5 | COC(=O)c1cc(OC(C)C)c2nc(N3C4CCC3CC(NCc3c(-c5ccccc5C(F)(F)F)noc3C3CC3)C4)sc2c1 (stereo not shown) [Example 1403] | 119% | 1 to 100 nM
6 | COC(=O)c1cc(C)c2nc(N3C4CCC3CC(NCc3c(-c5ccccc5C(F)(F)F)noc3C3CC3)C4)sc2c1 (stereo not shown) [Example 1404] | 46% | 100 to 1000 nM
7 | Cc1cc(C(=O)O)cc2sc(N3C4CCC3CC(NCc3c(-c5ccccc5C(F)(F)F)noc3C3CC3)C4)nc12 (stereo not shown) [Example 1405] | 125% | 1 to 100 nM
8 | Cc1cc(C(=O)NS(=O)(=O)C2(C)CC2)cc2sc(N3C4CCC3CC(NCc3c(-c5ccccc5C(F)(F)F)noc3C3CC3)C4)nc12 (stereo not shown) [Example 1406] | 133% | < 1 nM
9 | COC(=O)c1cc(F)c2nc(N3C4CCC3CC(NCc3c(-c5ccccc5C(F)(F)F)noc3C3CC3)C4)sc2c1 (stereo not shown) [Example 1407] | 92.5% | 1 to 100 nM
10 | O=C(O)c1cc(F)c2nc(N3C4CCC3CC(NCc3c(-c5ccccc5C(F)(F)F)noc3C3CC3)C4)sc2c1 (stereo not shown) [Example 1408] | 103% | 1 to 100 nM
11 | COC(=O)c1cc(C2CC2)c2nc(N3C4CCC3CC(NCc3c(-c5ccccc5C(F)(F)F)noc3C3CC3)C4)sc2c1 (stereo not shown) [Example 1409] | 52% | 1 to 100 nM
12 | O=C(O)c1cc(C2CC2)c2nc(N3C4CCC3CC(NCc3c(-c5ccccc5C(F)(F)F)noc3C3CC3)C4)sc2c1 (stereo not shown) [Example 1410] | 74.5% | < 1 nM
13 | O=C(O)c1ccc2nc(N3C4CCC3CC(NCc3c(-c5c(F)cccc5F)noc3C3CC3)C4)sc2c1 (stereo not shown) [Example 1411] | 94.7% | 1 to 100 nM
14 | CCOC(=O)c1ccc2nc(N3C4CCC3CC(NCc3c(-c5ccccc5C(F)(F)F)noc3C3CC3)C4)sc2c1 (stereo not shown) [Example 1412] | 75% | 100 to 1000 nM
15 | O=C(O)c1ccc2nc(N3C4CCC3CC(NCc3c(-c5ccccc5C(F)(F)F)noc3C3CC3)C4)sc2c1 (stereo not shown) [Example 1413] | 90.7% | 1 to 100 nM
16 | O=C(NS(=O)(=O)C1CC1)c1cc(C2CC2)c2nc(N3C4CCC3CC(NCc3c(-c5ccccc5C(F)(F)F)noc3C3CC3)C4)sc2c1 (stereo not shown) [Example 1414] | 89.5% | < 1 nM
17 | CC(C)Oc1cc(C(=O)NS(=O)(=O)C2CC2)cc2sc(N3C4CCC3CC(NCc3c(-c5ccccc5C(F)(F)F)noc3C3CC3)C4)nc12 (stereo not shown) [Example 1415] | 106% | 1 to 100 nM
18 | O=C(NS(=O)(=O)C1CC1)c1ccc2nc(N3C4CCC3CC(NCc3c(-c5ccccc5C(F)(F)F)noc3C3CC3)C4)sc2c1 (stereo not shown) [Example 1416] | 87.5% | 1 to 100 nM
19 | O=C(NS(=O)(=O)C1CC1)c1ccc2nc(N3C4CCC3CC(NCc3c(-c5c(F)cccc5F)noc3C3CC3)C4)sc2c1 (stereo not shown) [Example 1417] | 69% | 1 to 100 nM
20 | O=C(O)c1ccc2nc(N3C4CCC3CC(NCc3c(-c5ccccc5C(F)(F)F)noc3C3CC3)C4)oc2c1 (stereo not shown) [Example 1418] | 102% | 1 to 100 nM
21 | O=C(O)c1cc(C2CC2)c2nc(N3C4CCC3CC(NCc3c(-c5c(F)cccc5F)noc3C3CC3)C4)sc2c1 (stereo not shown) [Example 1419] | 107% | 1 to 100 nM
22 | CC1(S(=O)(=O)NC(=O)c2ccc3nc(N4C5CCC4CC(NCc4c(-c6ccccc6C(F)(F)F)noc4C4CC4)C5)sc3c2)CC1 (stereo not shown) [Example 1420] | 91% | 1 to 100 nM
23 | CC1(S(=O)(=O)NC(=O)c2ccc3nc(N4C5CCC4CC(NCc4c(-c6c(F)cccc6F)noc4C4CC4)C5)sc3c2)CC1 (stereo not shown) [Example 1421] | 101% | 1 to 100 nM
24 | CC1(S(=O)(=O)NC(=O)c2ccc3nc(N4C5CCC4CC(NCc4c(-c6ccccc6C6CC6)noc4C4CC4)C5)sc3c2)CC1 (stereo not shown) [Example 1422] | 94% | 1 to 100 nM
25 | COC(=O)c1cc(OC(C)C)c2nc(N3C4CCC3CC(NCc3c(-c5c(F)cccc5F)noc3C3CC3)C4)sc2c1 (stereo not shown) [Example 1423] | 78% | > 1000 nM
26 | O=C(NS(=O)(=O)C1CC1)c1ccc2nc(N3C4CCC3CC(NCc3c(-c5ccccc5C(F)(F)F)noc3C3CC3)C4)oc2c1 (stereo not shown) [Example 1424] | 148% | 1 to 100 nM
27 | CC1(S(=O)(=O)NC(=O)c2ccc3nc(N4C5CCC4CC(NCc4c(-c6ccccc6C(F)(F)F)noc4C4CC4)C5)oc3c2)CC1 (stereo not shown) [Example 1425] | 74% | 100 to 1000 nM
28 | CC(C)Oc1cc(C(=O)O)cc2sc(N3C4CCC3CC(NCc3c(-c5c(F)cccc5F)noc3C3CC3)C4)nc12 (stereo not shown) [Example 1426] | 73.2% | 100 to 1000 nM
29 | CC(C)Oc1cc(C(=O)NS(=O)(=O)C2(C)CC2)cc2sc(N3C4CCC3CC(NCc3c(-c5c(F)cccc5F)noc3C3CC3)C4)nc12 (stereo not shown) [Example 1428] | 86% | 1 to 100 nM
